Consider one molecule from US20220306585A1, “PYRAZOLE DERIVATIVES FOR CONTROLLING ARTHROPODS” (Bayer Animal Health GmbH, priority 2019, published 2022).

Series [1] in a line: Evaluation of pharmacokinetics in vivo (rat). The following applies: concentration of Parent Drug A after admin. of the named substance. As to the method: (§1) Evaluation of Pharmacokinetics (In Vivo) To evaluate the pharmacokinetics of test substances in vivo, these test substances are dissolved in appropriate formulation vehicles (ethanol, dimethyl sulfoxide, PEG400, glycerol formal etc.), or mixtures thereof. The test substances are then administered to rats or dogs intravenously, orally or subcutaneously. The intravenous application is performed as bolus. Administered doses range usually between 0.1 to 5 mg/kg, however, doses for subcutaneous and oral administration can exceed this range up to doses of 30 mg/kg. Blood samples are retrieved via a catheter, exsanguination or venous puncture in vials containing appropriate anticoagulants, such as lithium heparinate or potassium EDTA. Plasma is generated from the blood via centrifugation. Blood samples are taken over an appropriate time interval, usually lasting up to 144 h after administration. If necessary, samples from later time points can also be taken. If possible, time points are chosen so that the initial absorption phase, the maximum plasma concentration (Cmax), and exposure within a certain time interval (AUC(0-t))aer described. Furthermore, it is possible to also retrieve organ-, tissue- and urine samples. The quantitative measurement of the test substances in the samples is performed using calibration curves in the respective matrices. The protein content of the samples is precipitated using acetonitrile or methanol. Thereafter, the samples are separated using HPLC in combination with reversed phase chromatography columns. The HPLC system is coupled to a triple quadrupole mass spectrometer via an electrospray interface. The evaluation of the plasma concentration/time profiles are afterwards evaluated using a validated pharmacokinetics evaluation program. […] Relative bioavailability (Frel) was used to describe the exposure of parent drug after prodrug administration compared to the exposure of parent drug after direct administration of compound A which was normalised to 100%.

Series [2] can be described thus: Evaluation of pharmacokinetics in vivo (dog). As for the experimental part:
as §1

The subject of series [3] is Ctenocephalides felis adult. The series can be described thus: Antiparasitic activity after administration to rats: fleas. Type of series: in vivo. The following applies: Ctenocephalides felis adult; for In-vivo Efficacy SD2: study day 2; for In-vivo Efficacy SD9: study day 9. In outline: (§2)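 Compounds dissolved in glycerol formal, given i.p. or s.c. to rats, 5 per group. Infestation with 30 D. variabilis nymphs (days −2, 7, 14, 21, 28, 35) and 30 adult C. felis (days −1, 8, 15, 22, 29, 36), with counts on days 2, 9, 16, 23, 30, 37. Percent efficacy compares mean live attached ticks or live fleas with a placebo-treated group.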

The subject of series [4] is Dermacentor variabilis nymph. The series can be described thus: Antiparasitic activity after administration to rats: ticks. It is filed as in vivo. The following applies: Dermacentor variabilis nymph; for In-vivo Efficacy SD2: study day 2; for In-vivo Efficacy SD9: study day 9. Summed up:
as §2

For the molecule `N#CC1(NC(=O)c2cc(-c3cnn(-c4c(Cl)cc(C(F)(C(F)(F)F)C(F)(F)F)cc4OC(F)(F)F)c3)ccc2Cl)CC1` [Parent Drug A, 2-Chlor-5-{1-[2-chlor-4-(1,1,1,2,3,3,3-heptafluorpropan-2-yl)-6-(trifluormethoxy)phenyl]-1H-pyrazol-4-yl}-N-(1-cyanocyclopropyl)benzamide, reference compound], the “AUC(0-144 h)norm of parent drug A” value in series [1] (iv bolus) is 11 kg·h/L; in series [1] (sc), 1.7 kg·h/L. Further, the “AUC(0-72 h)norm of parent drug A” value in series [2] (iv bolus, concentration of Parent Drug A after admin. of the named substance) was 6.0 kg·h/L. Besides, in series [2] (plasma, sc, calculated based on AUC(0-t)norm, parent drug A normalised to 100%, read-out: Frel (relative bioavailability)), the bioavailability was 100%. Further, the “AUC(0-384 h)norm of parent drug A” value in series [2] (sc, concentration of Parent Drug A after admin. of the named substance) came to 1.0 kg·h/L. The “In-vivo Efficacy SD2” value was found to be 84% in series [3] (10 mg/kg ip), 53% in series [3] (10 mg/kg sc), 96% in series [4] (10 mg/kg ip) and 72% in series [4] (10 mg/kg sc). The “In-vivo Efficacy SD9” value is given as 68% in series [3] (10 mg/kg ip), 44% in series [3] (10 mg/kg sc), 87% in series [4] (10 mg/kg ip) and 61% in series [4] (10 mg/kg sc). The “In-vivo Efficacy SD16” value in series [3] (10 mg/kg ip, study day 16) was determined as 71%; in series [4] (10 mg/kg ip, study day 16), 83%. The “In-vivo Efficacy SD23” value in series [4] (10 mg/kg ip, study day 23) was 93%. The “In-vivo Efficacy SD30” value in series [4] (10 mg/kg ip, study day 30) is on record as 53%. Further, the “In-vivo Efficacy SD37” value in series [4] (10 mg/kg ip, study day 37) was 32%.
